From patent US11548913B2, “Therapeutic compositions including peptides and uses thereof” (Stealth BioTherapeutics Inc., priority 2015, dated 2023)
“Also recorded” adds a separate entry of the source. Square brackets hold non-standard residues; d marks the D form. Peptide text beside a SMILES is read from it. Dmt = Cc1cc(O)cc(C)c1C[C@H](N)C(=O)O; dOrn = NCCC[C@@H](N)C(=O)O

Columns and labels:
excised rat hearts = experiment: Modified Langendorff rat heart model, peptide pre-treatment before ischemia/reperfusion (Example 2); details: hearts bathed 2 hours in 1 μM peptide before 20 min ischemia and 2 hours reperfusion; vs SBT-46, SBT-102 and controls; anticipated
Procedure: The Langendorff rodent heart model is widely employed in studies of myocardial function and responses to injury (e.g., ischemia). For whole-heart studies, male Sprague-Dawley rats (7-9 weeks old) are injected with pentobarbital (35 mg/kg, ip injection) and hearts are excised with midline thoracotomy. The aortas are secured around a cannula of a modified Langendorff apparatus and retrogradely perfused (perfusion pressure of 75 mm Hg) with a modified Krebs-Henseleit buffer containing (in mM): 118 NaCl, 24 NaHCO3, 4.75 KCl, 1.2 KH2PO4, 1.2 MgSO4, 2.0 CaCl2, and 10 glucose (gassed with 95/5% O2/CO2). Hearts are bathed in a buffer-filled perfusion chamber maintained at 37° C. for the duration of the experiments. Following the initiation of perfusion, hearts are instrumented for the simultaneous observation of mechanical and electrical function. A buffer-filled latex balloon (size 5, Harvard Apparatus, Holliston, Mass., USA), which is calibrated at the beginning of each day using a digital manometer, is inserted into the left ventricle (via the mitral valve) for the measurement of left ventricular developed pressure (LVDP), with balloon volume adjusted to establish a diastolic pressure of 5-8 mm Hg. Three electrodes are placed into the buffer filled perfusion chamber for the measurement of the volume-conducted electrocardiogram (ECG). Coronary flow rates are monitored constantly with a flow probe (Transconic Systems, Ithaca, N.Y., USA) connected in series with the perfusion line, and normalized to heart wet weight (in grams) at the end of each experiment. All physiological parameters are continuously monitored and stored on a personal computer using commercially available software (Chart, AD Instruments, Colorado Springs, Colo., USA). Heart rate is calculated using the LVDP trace, and maximal rates of contraction(+dP/dt) and relaxation (−dP/dt) are calculated using the derivative of the LVDP trace.
Prior to the initiation of ischemia/reperfusion, the excised rat hearts are bathed in buffer containing an experimental peptide at a concentration of 1 μM or buffer alone (control) for two hours. The experimental peptide is selected from D-Arg-D-Dmt-D-Lys-L-Phe-NH2 (SBT-46), D-Arg-L-DMT-L-Ala-L-Phe-NH2 (SBT-68), (Ac)-D-Arg-L-DMT-L-Lys-L-Phe-NH2 (SBT-85), D-Arg-L-Dmt-L-His-L-Phe-NH2(SBT-100), D-Arg-L-DMT-L-Orn-L-Phe-NH2 (SBT-102), D-Orn-L-DMT-L-Lys-L-Phe-NH2(SBT-131), D-(Amidine)Arg(propylamine)-L-DMT-L-Lys-L-Phe-NH2(SBT-140), and D-Arg(butylamidine analog)-L-DMT-L-Lys-L-Phe-NH2 (SBT-149). Following a 10 minute baseline period, ischemia/reperfusion is initiated. Hearts are exposed to global no-flow ischemia by stopping perfusion for 20 min. At the end of the index ischemia, static buffer from the perfusion lines is washed out (via an accessory port proximal to the aortic cannula), and reperfusion ensues for 2 hours with Krebs buffer. At the end of reperfusion, the left ventricle is dissected, sliced into 5 mm-thick slices, incubated in 1% triphenyltetrazolium chloride (TTC) for 10 min (37° C.) and digitally photographed for subsequent infarct size analysis. Infarct size is expressed as a percentage of the left ventricle (% area at risk (AAR))(calculated using ImageJ software, NIH, Bethesda, Md., USA).

[1] = test system: Excised Sprague-Dawley rat hearts; experiment: Modified Langendorff rat heart model, ischemia/reperfusion with peptide in the reperfusion buffer (Example 1); details: 1 μM peptide in Krebs buffer during 2 hours reperfusion after 20 min global no-flow ischemia; compared to controls
Procedure: The Langendorff rodent heart model is widely employed in studies of myocardial function and responses to injury (e.g., ischemia). For whole-heart studies, male Sprague-Dawley rats (7-9 weeks old) were injected with pentobarbital (35 mg/kg, ip injection) and hearts were excised with midline thoracotomy. The aortas were secured around a cannula of a modified Langendorff apparatus and retrogradely perfused (perfusion pressure of 75 mm Hg) with a modified Krebs-Henseleit buffer containing (in mM): 118 NaCl, 24 NaHCO3, 4.75 KCl, 1.2 KH2PO4, 1.2 MgSO4, 2.0 CaCl2, and 10 glucose (gassed with 95/5% O2/CO2). Hearts were bathed in a buffer-filled perfusion chamber maintained at 37° C. for the duration of the experiments. Following the initiation of perfusion, hearts were instrumented for the simultaneous observation of mechanical and electrical function. A buffer-filled latex balloon (size 5, Harvard Apparatus, Holliston, Mass., USA), calibrated at the beginning of each day using a digital manometer, was inserted into the left ventricle (via the mitral valve) for the measurement of left ventricular developed pressure (LVDP), with balloon volume adjusted to establish a diastolic pressure of 5-8 mm Hg. Three electrodes were placed into the buffer filled perfusion chamber for the measurement of the volume-conducted electrocardiogram (ECG). Coronary flow rates were monitored constantly with a flow probe (Transconic Systems, Ithaca, N.Y., USA) connected in series with the perfusion line, and normalized to heart wet weight (in grams) at the end of each experiment. All physiological parameters were continuously monitored and stored on a personal computer using commercially available software (Chart, AD Instruments, Colorado Springs, Colo., USA). Heart rate was calculated using the LVDP trace, and maximal rates of contraction(+dP/dt) and relaxation (−dP/dt) were calculated using the derivative of the LVDP trace.
Following a 10 minute baseline period, ischemia/reperfusion was initiated. Hearts were exposed to global no-flow ischemia by stopping perfusion for 20 min. At the end of the index ischemia, static buffer from the perfusion lines was washed out (via an accessory port proximal to the aortic cannula), and reperfusion ensued for 2 hours either with Krebs buffer alone (control) or Krebs buffer containing an experimental peptide at a concentration of 1 μM. Peptides tested included D-Arg-D-Dmt-D-Lys-L-Phe-NH2 (SBT-46), D-Arg-L-DMT-L-Ala-L-Phe-NH2 (SBT-68), (Ac)-D-Arg-L-DMT-L-Lys-L-Phe-NH2 (SBT-85), D-Arg-L-Dmt-L-His-L-Phe-NH2(SBT-100), D-Arg-L-DMT-L-Orn-L-Phe-NH2 (SBT-102), D-Orn-L-DMT-L-Lys-L-Phe-NH2(SBT-131), D-(Amidine)Arg(propylamine)-L-DMT-L-Lys-L-Phe-NH2 (SBT-140), and D-Arg(butylamidine analog)-L-DMT-L-Lys-L-Phe-NH2(SBT-149). At the end of reperfusion, the left ventricle was dissected, sliced into 5 mm-thick slices, incubated in 1% triphenyltetrazolium chloride (TTC) for 10 min (37° C.) and digitally photographed for subsequent infarct size analysis. Infarct size was expressed as a percentage of the left ventricle (% area at risk (AAR))(calculated using ImageJ software, NIH, Bethesda, Md., USA).

| Compound | LVDP (excised rat hearts) | infarct size (excised rat hearts) | maximal rates of contraction (+dP/dt) (excised rat hearts) | maximal rates of relaxation (−dP/dt) (excised rat hearts) | attenuation of cardiac ischemia injury and ischemia-reperfusion injury [1] | infarct size expressed as a percentage of area at risk (AAR) [1] | left ventricular developed pressure (LVDP) [1] | maximal rates of contraction (+dP/dt) [1] | maximal rates of relaxation (−dP/dt) [1] |
| --- | --- | --- | --- | --- | --- | --- | --- | --- | --- |
| Cc1cc(O)cc(C)c1C[C@H](NC(=O)[C@H](N)CCCN)C(=O)N[C@@H](CCCCN)C(=O)N[C@@H](Cc1ccccc1)C(N)=O [SBT-131, D-Orn-L-DMT-L-Lys-L-Phe-NH2] (H-[dOrn][Dmt]KF-NH2) | increased LVDP | reduced infarct size | increased maximal rates of contraction | increased maximal rates of relaxation | able to attenuate cardiac ischemia injury and ischemia-reperfusion injury; also recorded: attenuation of cardiac ischemia-reperfusion injury | reduced infarct size | increased LVDP | increased maximal rates of contraction | increased maximal rates of relaxation |
| Cc1cc(O)cc(C)c1C[C@H](NC(=O)[C@H](N)CCCNC(=N)N)C(=O)N[C@@H](Cc1cnc[nH]1)C(=O)N[C@@H](Cc1ccccc1)C(N)=O [SBT-100, D-Arg-L-Dmt-L-His-L-Phe-NH2] (H-[dR][Dmt]HF-NH2) | increased LVDP | reduced infarct size | increased maximal rates of contraction | increased maximal rates of relaxation | able to attenuate cardiac ischemia injury and ischemia-reperfusion injury; also recorded: attenuation of cardiac ischemia-reperfusion injury | reduced infarct size | increased LVDP | increased maximal rates of contraction | increased maximal rates of relaxation |
| Cc1cc(O)cc(C)c1C[C@H](NC(=O)[C@H](N)CCCNC(=N)N)C(=O)N[C@@H](C)C(=O)N[C@@H](Cc1ccccc1)C(N)=O [SBT-68, D-Arg-L-DMT-L-Ala-L-Phe-NH2] (H-[dR][Dmt]AF-NH2) | increased LVDP | reduced infarct size | increased maximal rates of contraction | increased maximal rates of relaxation | able to attenuate cardiac ischemia injury and ischemia-reperfusion injury; also recorded: attenuation of cardiac ischemia-reperfusion injury | reduced infarct size | increased LVDP | increased maximal rates of contraction | increased maximal rates of relaxation |
| D-Arg-D-Dmt-D-Lys-L-Phe-NH2 [SBT-46] |  |  |  |  | does not attenuate cardiac ischemia-reperfusion injury | did not reduce infarct size | did not reduce infarct size, increase LVDP | did not reduce infarct size, increase LVDP, or increase the maximal rates of contraction and relaxation | did not reduce infarct size, increase LVDP, or increase the maximal rates of contraction and relaxation |
| Cc1cc(O)cc(C)c1C[C@H](NC(=O)[C@H](N)CCCCC(=N)N)C(=O)N[C@@H](CCCCN)C(=O)N[C@@H](Cc1ccccc1)C(N)=O [SBT-149, D-Arg(butylamidine analog)-L-DMT-L-Lys-L-Phe-NH2] | increased LVDP | reduced infarct size | increased maximal rates of contraction | increased maximal rates of relaxation | able to attenuate cardiac ischemia injury and ischemia-reperfusion injury; also recorded: attenuation of cardiac ischemia-reperfusion injury | reduced infarct size | increased LVDP | increased maximal rates of contraction | increased maximal rates of relaxation |
| D-Arg-L-Dmt-L-Orn-L-Phe-NH2 [SBT-102] |  |  |  |  | does not attenuate cardiac ischemia-reperfusion injury | did not reduce infarct size | did not reduce infarct size, increase LVDP | did not reduce infarct size, increase LVDP, or increase the maximal rates of contraction and relaxation | did not reduce infarct size, increase LVDP, or increase the maximal rates of contraction and relaxation |
